Consider nine compounds from patent US20100022491A1, “4-HYDROXY-2-OXO-2,3-DIHYDRO-1,3-BENZOTHIAZOL-7YL COMPOUNDS FOR MODULATION OF B2-ADRENORECEPTOR ACTIVITY” (ASTRAZENECA AB, priority 2006, published 2010).

Where a name gives a salt, the structure may show the parent alone.

For the test, the target named is T1, Adrenergic β2 (Homo sapiens, UniProt P07550).
T1 construct: Adherent H292 cells were removed from tissue culture flasks; endogenous in cells; host or cells: H292 cells
Briefly: Adrenergic β2 mediated cAMP production in H292 cells. It is filed as cell-based. As to conditions: for EC50: H292 cells, cAMP by AlphaScreen, 60 minutes at room temperature, rolipram 300 μM, read-out: β2 pEC50 (converted); for β2 Int Act: Intrinsic Activity as a fraction relative to the maximum activity determined for formoterol. A digest of the protocol:
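H292 cells pretreated 10 min with rolipram (300 μM final), then exposed to agonist 60 min at room temperature in HEPES-buffered HBSS, 1.6% DMSO final. Lysate cAMP quantified by AlphaScreen against a cAMP standard curve; four-parameter fit gives pEC50 and intrinsic activity relative to formoterol maximum.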

T1 sequence (P07550 whole entry): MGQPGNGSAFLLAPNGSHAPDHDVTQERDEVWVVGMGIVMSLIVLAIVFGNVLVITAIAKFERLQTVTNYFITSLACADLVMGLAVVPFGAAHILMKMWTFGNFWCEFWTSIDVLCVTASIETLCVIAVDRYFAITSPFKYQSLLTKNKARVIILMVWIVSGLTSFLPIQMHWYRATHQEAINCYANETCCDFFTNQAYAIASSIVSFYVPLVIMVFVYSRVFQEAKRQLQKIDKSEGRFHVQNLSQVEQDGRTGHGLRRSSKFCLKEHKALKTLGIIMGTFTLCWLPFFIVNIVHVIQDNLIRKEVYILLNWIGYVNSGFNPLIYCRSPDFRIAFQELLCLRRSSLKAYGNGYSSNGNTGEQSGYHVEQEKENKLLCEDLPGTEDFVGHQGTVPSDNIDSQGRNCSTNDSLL

On to `O=C(CCNCCc1ccccc1)N(CCNCCc1ccc(O)c2[nH]c(=O)sc12)C1CCC(F)(F)CC1` [Example 4, N-(4,4-Difluorocyclohexyl)-N-(2-{[2-(4-hydroxy-2-oxo-2,3-dihydro-1,3-benzothiazol-7-yl)ethyl]amino}ethyl)-N^3-(2-phenylethyl)-β-alaninamide bis-trifluoroacetic acid salt], for which the EC50 was 1 nM and the “β2 Int Act” value is reported as 0.79.

As for `O=C(CCNCCc1ccccc1)N(CCNCCc1ccc(O)c2[nH]c(=O)sc12)C1CCCCC1` [Example 5, N-Cyclohexyl-N-(2-{[2-(4-hydroxy-2-oxo-2,3-dihydro-1,3-benzothiazol-7-yl)ethyl]amino}ethyl)-N^3-(2-phenylethyl)-β-alaninamide bis-trifluoroacetic acid salt], the EC50 is 2.51 nM and the “β2 Int Act” value came out at 0.83.

With `Cc1cccc(CCNCCC(=O)N(CCNCCc2ccc(O)c3[nH]c(=O)sc23)C2CCCCCC2)c1` [Example 85, N^1-Cycloheptyl-N^1-(2-{[2-(4-hydroxy-2-oxo-2,3-dihydro-1,3-benzothiazol-7-yl)ethyl]amino}ethyl)-N^3-[2-(3-methylphenyl)ethyl]-β-alaninamide bis-trifluoroacetic acid salt], the EC50 was 6.31 nM and the “β2 Int Act” value was determined as 0.65.

Turning to `COc1ccc(CCNCCC(=O)N(CCNCCc2ccc(O)c3[nH]c(=O)sc23)C2CCCCCC2)cc1OC` [Example 86, N^1-Cycloheptyl-N^3-[2-(3,4-dimethoxyphenyl)ethyl]-N^1-(2-{[2-(4-hydroxy-2-oxo-2,3-dihydro-1,3-benzothiazol-7-yl)ethyl]amino}ethyl)-β-alaninamide bis-trifluoroacetic acid salt], the EC50 was 39.8 nM and the “β2 Int Act” value was found to be 0.43.

Turning to `O=C(CCNCCc1ccc(O)c2[nH]c(=O)sc12)N(CCNCCc1ccc(O)c2[nH]c(=O)sc12)C1CCCCCC1` [Example 87, bis-trifluoroacetic acid salt], the EC50 is 3.16 nM and the “β2 Int Act” value was found to be 0.72.

Consider `O=C(CCNCCc1ccc2c(c1)OCCO2)N(CCNCCc1ccc(O)c2[nH]c(=O)sc12)C1CCCCCC1` [Example 88, N-Cycloheptyl-N^3-[2-(2,3-dihydro-1,4-benzodioxin-6-yl)ethyl]-N^1-(2-{[2-(4-hydroxy-2-oxo-2,3-dihydro-1,3-benzothiazol-7-yl)ethyl]amino}ethyl)-β-alaninamide bis-trifluoroacetic acid salt], for which the EC50 is 25.1 nM and the “β2 Int Act” value is 0.37.

As for `O=C(CCNCCc1ccc(O)c(Cl)c1)N(CCNCCc1ccc(O)c2[nH]c(=O)sc12)C1CCCCC1` [Example 89, N^3-[2-(3-chloro-4-hydroxyphenyl)ethyl]-N^1-cyclohexyl-N^1-(2-{[2-(4-hydroxy-2-oxo-2,3-dihydro-1,3-benzothiazol-7-yl)ethyl]amino}ethyl)-β-alaninamide bis-trifluoroacetic acid salt], the EC50 was 1.26 nM and the “β2 Int Act” value stood at 0.9.

Regarding `O=C(CCNCCc1cccc(O)c1)N(CCNCCc1ccc(O)c2[nH]c(=O)sc12)C1CCCCCCC1` [Example 90, N^1-Cyclooctyl-N^1-(2-{[2-(4-hydroxy-2-oxo-2,3-dihydro-1,3-benzothiazol-7-yl)ethyl]amino}ethyl)-N^3-[2-(3-hydroxyphenyl)ethyl]-β-alaninamide bis-trifluoroacetic acid salt], the EC50 is 3.98 nM and the “β2 Int Act” value was 0.71.

In the case of `CC1(C)CCC(N(CCNCCc2ccc(O)c3[nH]c(=O)sc23)C(=O)CCNCCc2cccc(O)c2)CC1` [Example 91, N^1-(4,4-Dimethylcyclohexyl)-N^1-(2-{[2-(4-hydroxy-2-oxo-2,3-dihydro-1,3-benzothiazol-7-yl)ethyl]amino}ethyl)-N^3-[2-(3-hydroxyphenyl)ethyl]-β-alaninamide bis-trifluoroacetic acid salt], the EC50 is 3.98 nM and the “β2 Int Act” value amounted to 0.75.
